Columns and labels:
mTORC1 = mTORC1 (Homo sapiens (Human), UniProt P42345+P62942); assay: mTORC1 inhibition, AlphaLISA of Phospho-p70 S6 kinase (p70S6K pT389) in PC-3 cells; type: cell-based; settings: inhibition of p70S6K pT389 levels
FKBP12 = FKBP12 (Homo sapiens (Human), UniProt P62942); assay: SPR assay to determine binding affinity to FKBP12 (direct binding); settings: immobilized biotinylated avi-FKBP12
[1] = biological target: FKBP12 / FRB ternary complex (Homo sapiens (Human), UniProt P42345+P62942); assay: SPR assay to characterize ternary complex formation with FKBP12 (FRB binding to rapalog-saturated FKBP12); settings: FRB dilutions with 100 nM rapalog on immobilized FKBP12
In short: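 Biotinylated avi-FKBP12 immobilized (~100 RU) on streptavidin chip; A-B-A injections kept FKBP12 saturated with 100 nM rapalog while FRB (0.00011–20 μM, 3-fold, 12 points) was injected 120 s.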

mTORC2 = mTORC2 (Homo sapiens (Human), UniProt P42345+P62942); assay: mTORC2 inhibition, AlphaLISA of Phospho-AKT (pAKT pS473) in PC3 cells; type: cell-based
[2] = biological target: FKBP51 / FRB ternary complex (Homo sapiens (Human), UniProt P42345+Q13451); assay: SPR assay to characterize ternary complex formation with FKBP51 (FRB binding to rapalog-saturated FKBP51); settings: FRB dilutions with 100 nM rapalog on immobilized FKBP51
In short: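 SPR with biotinylated avi-FKBP51 on streptavidin chip (~200 RU); FRB (0.00011-20 μM, 3-fold series) injected with 100 nM rapalog, A-B-A mode keeping FKBP saturated with rapalog.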

FKBP51 = FKBP51 (Homo sapiens (Human), UniProt Q13451); assay: SPR assay to determine binding affinity to FKBP51 (direct binding); settings: immobilized biotinylated avi-FKBP51
Chain of FKBP51 (Q13451 whole entry): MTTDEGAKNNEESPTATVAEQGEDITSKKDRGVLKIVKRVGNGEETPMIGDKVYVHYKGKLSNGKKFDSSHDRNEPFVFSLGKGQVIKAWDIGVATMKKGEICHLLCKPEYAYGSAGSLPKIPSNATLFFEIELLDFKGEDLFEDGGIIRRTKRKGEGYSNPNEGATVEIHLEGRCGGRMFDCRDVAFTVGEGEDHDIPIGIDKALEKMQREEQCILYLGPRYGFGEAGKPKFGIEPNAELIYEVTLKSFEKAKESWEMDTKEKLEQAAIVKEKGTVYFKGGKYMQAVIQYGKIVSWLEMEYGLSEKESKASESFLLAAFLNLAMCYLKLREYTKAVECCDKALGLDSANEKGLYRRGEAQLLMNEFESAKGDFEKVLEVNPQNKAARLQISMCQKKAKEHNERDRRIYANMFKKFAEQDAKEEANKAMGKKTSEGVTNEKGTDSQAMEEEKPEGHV
In short: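 Biotinylated avi-FKBP51 captured on streptavidin chip to about 2000 RU. Compounds injected at 0.5-1000 nM (8 points, 3-fold) for 120 s contact and 3600 s dissociation in 50 mM HEPES pH 7.5, 150 mM NaCl, 2 mM MgCl2, 1 mM DTT, 0.05% Tween-20, 1% DMSO.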

Chain of FKBP12 (P62942 whole entry): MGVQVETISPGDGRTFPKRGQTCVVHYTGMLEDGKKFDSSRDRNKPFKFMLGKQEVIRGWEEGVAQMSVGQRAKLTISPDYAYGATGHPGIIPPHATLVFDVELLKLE

SMILES | IC50 (mTORC1) [nM] | Kd (FKBP12) [nM] | Kd [1] [nM] | mTORC2 % inhibition at 1 uM (mTORC2) | Kd [2] [nM] | Kd (FKBP51) [nM]
COCCS(=O)(=O)NC1CC2CCC(C)C(O)(O2)C(=O)C(=O)N2CCCCC2C(=O)OC(C(C)CC2CCC(OCCCO)C(OC)C2)CC(=O)C(C)C=C(C)C(O)C(OC)C(=O)C(C)CC(C)C=CC=CC=C1C (mixture of isomers) [Compound 13] | 0.1 to 0.8 | < 0.3 | 300 to 800 | A (A ≤20% inhibition at 1 micro Molar (uM)) | > 800 | 10 to 100
CCOC(=O)COC1CCC(CC(C)C2CC(=O)C(C)C=C(C)C(O)C(OC)C(=O)C(C)CC(C)C=CC=CC=C(C)C(OCC3CC3)CC3CCC(C)C(O)(O3)C(=O)C(=O)N3CCCCC3C(=O)O2)CC1OC (stereo not drawn) [Compound 51] | > 0.8 | > 1 | 300 to 800 | A (A ≤20% inhibition at 1 micro Molar (uM)) | > 800 | > 100
CO[C@@H]1C[C@H](C[C@@H](C)[C@@H]2CC(=O)[C@H](C)/C=C(\C)[C@@H](O)[C@@H](OC)C(=O)[C@H](C)C[C@H](C)/C=C/C=C/C=C(\C)[C@@H](OCC3CCS(=O)(=O)C3)C[C@@H]3CC[C@@H](C)[C@@](O)(O3)C(=O)C(=O)N3CCCC[C@H]3C(=O)O2)CC[C@H]1O (stereo partly drawn) [Compound 30] | > 0.8 | < 0.3 | > 800 | A (A ≤20% inhibition at 1 micro Molar (uM)) | > 800 | 10 to 100
COCCOCCOCCS(=O)(=O)N[C@H]1C[C@@H]2CC[C@@H](C)[C@@](O)(O2)C(=O)C(=O)N2CCCC[C@H]2C(=O)O[C@H]([C@H](C)C[C@@H]2CC[C@@H](O)[C@H](OC)C2)CC(=O)[C@H](C)/C=C(\C)[C@@H](O)[C@@H](OC)C(=O)[C@H](C)C[C@H](C)/C=C/C=C/C=C/1C [Compound 25] | 0.1 to 0.8 | < 0.3 | 300 to 800 | A (A ≤20% inhibition at 1 micro Molar (uM)) | > 800 | 10 to 100
CO[C@@H]1C[C@H](C[C@@H](C)[C@@H]2CC(=O)[C@H](C)/C=C(\C)[C@@H](O)[C@@H](OC)C(=O)[C@H](C)C[C@H](C)/C=C/C=C/C=C(\C)[C@@H](OCCC3COC3)C[C@@H]3CC[C@@H](C)[C@@](O)(O3)C(=O)C(=O)N3CCCC[C@H]3C(=O)O2)CC[C@H]1O [Compound 34] | > 0.8 | < 0.3 | > 800 | A (A ≤20% inhibition at 1 micro Molar (uM)) | > 800 | 10 to 100
COCCS(=O)(=O)NC1CC2CCC(C)C(O)(O2)C(=O)C(=O)N2CCCCC2C(=O)OC(C(C)CC2CCC(O)C(OC)C2)CC(=O)C(C)C=C(C)C(O)C(OC)C(=O)C(C)CC(C)C=CC=CC=C1C (mixture of isomers) [Compound 24] | 0.1 to 0.8 | < 0.3 | 300 to 800 | A (A ≤20% inhibition at 1 micro Molar (uM)) | 300 to 800 | 10 to 100
CCOC(=O)COC1CCC(CC(C)C2CC(=O)C(C)C=C(C)C(O)C(OC)C(=O)C(C)CC(C)C=CC=CC=C(C)C(NS(=O)(=O)CCOC)CC3CCC(C)C(O)(O3)C(=O)C(=O)N3CCCCC3C(=O)O2)CC1OC (mixture of isomers) [Compound 14] | > 0.8 | 0.3 to 1 | > 800 | A (A ≤20% inhibition at 1 micro Molar (uM)) | > 800 | 10 to 100
COCCOCCOC1CC2CCC(C)C(O)(O2)C(=O)C(=O)N2CCCCC2C(=O)OC(C(C)CC2CCC(OCCCS(C)(=O)=O)C(OC)C2)CC(=O)C(C)C=C(C)C(O)C(OC)C(=O)C(C)CC(C)C=CC=CC=C1C (mixture of isomers) [Compound 65] | 0.1 to 0.8 | < 0.3 | 300 to 800 | A (A ≤20% inhibition at 1 micro Molar (uM)) | > 800 | 10 to 100
COC1CC(CC(C)C2CC(=O)C(C)C=C(C)C(O)C(OC)C(=O)C(C)CC(C)C=CC=CC=C(C)C(NS(=O)(=O)C3CC3)CC3CCC(C)C(O)(O3)C(=O)C(=O)N3CCCCC3C(=O)O2)CCC1OCCCO (mixture of isomers) [Compound 15] | 0.1 to 0.8 | < 0.3 | < 300 | A (A ≤20% inhibition at 1 micro Molar (uM)) | > 800 | 10 to 100

From patent US11603377B2, “MTORC1 modulators and uses thereof” (Aeovian Pharmaceuticals, Inc., priority 2020, dated 2023)
